Source: patent publication US20220143183A1, “PHOTOSWITCHABLE PROTACS AND SYNTHESIS AND USES THEREOF” (New York University, priority 2019, published 2022)

Legend:
RS4;11 lymphoblast cells = assay: Cell viability assay (Promega MTS), dark or pulsed irradiation; type: cell-based, human; details: 72 h, dark vs pulsed 390 nm irradiation
Description: Optical control of BRD2-4 with PHOTACs. To assess the biological activity of the PHOTACs, their effect on the viability of RS4;11 lymphoblast cells was tested. Cells were treated in a 96-well plate with increasing concentrations of PHOTACs and were either irradiated with 390 nm light pulses (100 ms every 10 s) for 72 h or incubated with the compound in the dark. Subsequently, cell viability assays (Promega MTS) were performed, as previously described.
Cell culture. The human acute lymphoblastic leukemia RS4;11 (ATCC® CRL-1873™) cell line was purchased from the American Type Culture Collection and cultured in RPMI1640 medium (Gibco) with 10% fetal bovine serum (FBS) and 1% penicillin/streptomycin (PS) in a humidified incubator at 37° C. with 5% CO2 in air. Cells were divided every 2-3 days and the concentration was maintained between 1×10^5 and 1×10^6 cells/mL. For the experiments compounds were serially diluted in RPMI160 without the dye phenol red (Gibco) to reduce the influence of the dye by absorption. Azobenzene stocks and dilutions were strictly kept in the dark and prepared under red light conditions.
Colorimetric MTT Assays. The activity of dehydrogenase enzymes in metabolically active cells, as a quantitative measurement for cytotoxicity and proliferation, was determined by colorimetric measurement of the reduction of [3-(4,5-dimethylthiazol-2-yl)-5-(3-carboxymethoxyphenyl)-2-(4-sulfophenyl)-2H-tetrazolium (MTS) to formazan. The absorbance of formazan at 490 nm was measured on a FLUOstar Omega microplate reader (BMG Labtech).
Cells were treated with different concentrations, ranging from 10 μM to 1 nM, of our compounds and incubated on a 96-well plate for 72 h. They were placed in light-proof boxes and exposed to the lighting conditions specified in the experiment for 72 h. Next, 10 μL of Promega CellTiter 96® AQueous One Solution Reagent was added to each well and incubated for further 4-7 hours. The absorbance at 490 nm was then recorded with a 96-well plate reader.
(§1) LED illumination. For illumination of the cells we used the cell disco system as previously described in the literature^[25]. 390 nm 5 mm LEDs were purchased from Roithner Lasertechnik. Cells were preirradiated for 1 min at 390 nm, followed by 100 ms pulses every 10 s in 96- or 6-well plates.

BRD4 = BRD4 (Homo sapiens, UniProt O60885); assay: Western blot of BRD4 levels in RS4;11 cells; type: cell-based; set-up: endogenous in cells; host or cells: RS4;11 (ATCC CRL-1873); details: 4 h
Description: Next, the light dependence of targeted protein degradation was analyzed in RS4;11 cells by western blot analysis of the BET proteins BRD2-4 (FIG. 5). To this end, cells were treated with increasing concentrations of our lead compound, PHOTAC-I-3, for 4 h and pulse-irradiated with 390 nm light (100 ms every 10 s). […] The cereblon-dependent degradation was confirmed by a competition experiment (FIG. 5E), and further validated by siRNA knockdown of cereblon (FIG. 13).
Western Immunoblot Analysis. Rabbit monoclonal Antibodies for BRD4 (#13440), β-Actin (#4970) c-Myc (#5605) and Anti-rabbit IgG, HRP-linked Antibody (#7074) were purchased from Cell Signalling Technologies.
(§2) Cells were incubated with different concentrations of selected compounds. They were placed in a light-proof box and preirradiated for 1 min at 390 nm followed by 100 ms pulses every 10 s or were kept in the dark for 4 h.
(§3) Cultured cells were collected by centrifugation and washed twice with cold PBS. The supernatant was removed and each cell pellet was lysed in 100 μL NP40-Cell-Lysis Buffer+0.1% SDS+1 mM PMSF+ protease inhibitor cocktail (Sigma Aldrich) for 30 min on ice, with vortexing at 10-minute intervals. Afterwards, cells were centrifuged at 13.000 rpm for 10 min at 4° C. Samples were stored on ice and the supernatant was collected for protein concentration determination using a Thermofisher Scientific Pierce™ Coomassie Plus (Bradford) Assay Kit.
(§4) The samples were diluted each with 5 μL Laemmli sample buffer Invitrogen (NuPAGE LDS Sample Buffer 4×) and 1 μL DTT, heated at 95° C. for 5 min. Respectively 20 μL of each sample was loaded in a lane of a Bio-Rad Mini-PROTEAN TGX precast Gel, 4-20%, used with tris-glycine SDS Running buffer. The gel ran 5 min at 50 V, then 35 min at 140 V. Next step was the electrotransfer to a polyvinylidene difluoride (PVDF) membrane which was carried out using an iBlot™ 2 Dry Blotting System set to the standard program. After the transfer, the membrane was washed with 25 mL TB ST for 5 min and subsequent incubated in 25 mL of blocking buffer (1×TBST+5% nonfat dry milk, Blotto, Santa Cruz Biotechnology) for 1 h at room temperature. The membrane was washed three times for 5 min each with 15 mL of TBST and incubated in a 10 mL antibody dilution buffer with gentle agitation at 4° C. overnight (Actin: 1:1000; c-MYC: 1:1000; BRD4: 1:1000). The next day, the membrane was washed again three times for 5 min each with 15 mL TBST, followed by incubation with anti-rabbit, HRP-linked antibody (1:2000) in 10 mL blocking buffer with gentle agitation for 1 h at room temperature. Afterwards, the membrane was washed three times for 5 min each with 15 mL TBST and then incubated in 10 mL of Clarity Max Western ECL Substrate solution for 5 min. Chemoluminescence imaging was performed on a Bio-Rad ChemiDoc™ Imaging System.
as §1

FKBP12 = biological target: T1, FKBP12 (Homo sapiens, UniProt P62942); assay: Immunoblot of FKBP12 levels in RS4;11 cells; type: cell-based; details: for FKBP12 levels: 390 nm pulse irradiation (100 ms every 10 s); for hook effect in FKBP12 degradation: 4 h, different concentrations; for FKBP12 degradation: in the dark; for FKBP12 degradation with MLN4924: in the presence of MLN4924; for light activation among compounds targeting FKBP12: light vs dark
T1 construct: endogenous in cells; host or cells: RS4;11 (ATCC CRL-1873)
Description: FIG. 6 depicts optical control of FKBP12 degradation. A) Immunoblot analysis of FKBP12 after treatment of RS4;11 cells with PHOTAC-II-5 for 4 h at different concentrations. Cells were either irradiated with pulses of 390 nm light (left, 100 ms every 10 s) or kept in the dark (right). B) Time course of FKBP12 degradation visualized by immunoblotting. RS4;11 cells were treated with PHOTAC-II-5 (100 nM) and collected at the indicated time points. C) Immunoblot analysis of FKBP12 after treatment of RS4;11 cells with PHOTAC-II-6 for 4 h at different concentrations. Cells were either irradiated with pulses of 390 nm light (left, 100 ms every 10 s) or kept in the dark (right). D) Time course of FKBP12 degradation visualized by immunoblotting. RS4;11 cells were treated with PHOTAC-II-6 (100 nM) and collected at the indicated time points.
FIG. 15 depicts FKBP12 immunoblots in RS4;11 cells. […] B) Degradation of FKBP12. Immunoblot analysis of FKBP12 after treatment of RS4;11 cells with PHOTAC-II-1 for 4 h at different concentrations. Cells were either irradiated with 100 ms pulses of 390 nm light every 10 s (left) or kept the dark (right). C) Time course of FKBP12 degradation visualized by immunoblotting.
Amongst the molecules tested, PHOTAC-II-5 and PHOTAC-II-6 turned out to be the most useful, and the biological investigations have been focused on these molecules (for PHOTACs-II-1-4, see FIG. 16). […] The degradation was slower than in the case of BET proteins, but between 6 and 12 hours the protein was largely absent from the cell lysates (FIG. 6B). […] The time course of FKBP12 degradation by PHOTAC-II-6 was similar to the one observed with PHOTAC-II-5 (FIG. 6D).
as §2, §3, §4
LED illumination. For illumination of the cells we used the cell disco system as previously described in the literature^[25]. […]

T1 sequence (P62942 whole entry): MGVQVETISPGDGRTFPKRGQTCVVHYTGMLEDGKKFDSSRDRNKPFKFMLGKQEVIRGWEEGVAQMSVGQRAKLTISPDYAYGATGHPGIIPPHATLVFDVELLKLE

Row | SMILES | light dependence of activity in viability assay (RS4;11 lymphoblast cells) | concentration at which robust photodegradation of BRD4 was found (BRD4; 390 nm pulses) [nM] | hook effect in BRD4 degradation (BRD4; different concentrations, 390 nm) | BRD4 levels (BRD4; 390 nm pulses (100 ms every 10 s)) | FKBP12 levels (FKBP12) | hook effect in FKBP12 degradation (FKBP12) | FKBP12 degradation (FKBP12) | FKBP12 degradation with MLN4924 (FKBP12) | light activation among compounds targeting FKBP12 (FKBP12)
1 | Cc1sc2c(c1C)C(c1ccc(Cl)cc1)=N[C@@H](CC(=O)Nc1ccc(/N=N/c3ccc(NC(=O)COc4cccc5c4C(=O)N(C4CCC(=O)NC4=O)C5=O)cc3)cc1)c1nnc(C)n1-2 (stereo partly drawn) [PHOTAC-I-10, 2-((S)-4-(4-chlorophenyl)-2,3,9-trimethyl-6H-thieno[3,2-f][1,2,4]triazolo[4,3-a][1,4]diazepin-6-yl)-N-(4-((E)-(4-(2-((2-(2,6-dioxopiperidin-3-yl)-1,3-dioxoisoindolin-4-yl)oxy)acetamido)phenyl)diazenyl)phenyl)acetamide] | light-dependent behavior | ≤ 10 | clear hook-effect |  |  |  |  |  | 
2 | COc1cc(/N=N/c2cccc3c2CN(C2CCC(=O)N(C)C2=O)C3=O)cc(OC)c1OCC(=O)NCCCCNC(=O)C[C@@H]1N=C(c2ccc(Cl)cc2)c2c(sc(C)c2C)-n2c(C)nnc21 (stereo partly drawn) [Me-PHOTAC-I-3, 2-((S)-4-(4-chlorophenyl)-2,3,9-trimethyl-6H-thieno[3,2-f][1,2,4]triazolo[4,3-a][1,4]diazepin-6-yl)-N-(4-(2-(2,6-dimethoxy-4-((E)-(2-(1-methyl-2,6-dioxopiperidin-3-yl)-1-oxoisoindolin-4-yl)diazenyl)phenoxy)acetamido)butyl)acetamide] |  |  |  | inactive control |  |  |  |  | 
3 | CCC(C)(C)C(=O)C(=O)N1CCCC[C@H]1C(=O)O[C@H](CCc1ccc(OC)c(OC)c1)c1cccc(OCC(=O)Nc2ccc(/N=N/c3ccc(NC(=O)COc4cccc5c4C(=O)N(C4CCC(=O)NC4=O)C5=O)cc3)cc2)c1 (stereo partly drawn) [PHOTAC-II-6, (1R)-3-(3,4-dimethoxyphenyl)-1-(3-(2-((4-((E)-(4-(2-((2-(2,6-dioxopiperidin-3-yl)-1,3-dioxoisoindolin-4-yl)oxy)acetamido)phenyl)diazenyl)phenyl)amino)-2-oxoethoxy)phenyl)propyl (2S)-1-(3,3-dimethyl-2-oxopentanoyl)piperidine-2-carboxylate] |  |  |  |  | light-dependent degradation | pronounced “hook effect” | slight dark activity | inactive | largest light activation
4 | CCC(C)(C)C(=O)C(=O)N1CCCC[C@H]1C(=O)O[C@H](CCc1ccc(OC)c(OC)c1)c1cccc(OCC(=O)NCCCNC(=O)COc2c(OC)cc(/N=N\c3cccc4c3CN(C3CCC(=O)NC3=O)C4=O)cc2OC)c1 (stereo partly drawn) [PHOTAC-II-1, (1R)-3-(3,4-dimethoxyphenyl)-1-(3-(2-((3-(2-(4-((2-(2,6-dioxopiperidin-3-yl)-1-oxoisoindolin-4-yl)diazenyl)-2,6-dimethoxyphenoxy)acetamido)propyl)-amino)-2-oxoethoxy)phenyl)propyl-(2S)-1-(3,3-dimethyl-2-oxopentanoyl)-piperidine-2-carboxylate] |  |  |  |  | slow, but sustained FKBP12 degradation over time |  | not when kept in the dark |  | 
5 | CCC(C)(C)C(=O)C(=O)N1CCCC[C@H]1C(=O)O[C@H](CCc1ccc(OC)c(OC)c1)c1cccc(OCC(=O)NCCNC(=O)COc2ccc(/N=N\c3cccc4c3CN(C3CCC(=O)NC3=O)C4=O)cc2)c1 (stereo partly drawn) [PHOTAC-II-5, (1R)-3-(3,4-dimethoxyphenyl)-1-(3-(2-((2-(2-(4-((Z)-(2-(2,6-dioxopiperidin-3-yl)-1-oxoisoindolin-4-yl)diazenyl)phenoxy)acetamido)ethyl)amino)-2-oxoethoxy)phenyl)propyl (25)-1-(3,3-dimethyl-2-oxopentanoyl)piperidine-2-carboxylate] |  |  |  |  | pronounced effect on FKBP12 levels | pronounced “hook effect” | no degradation could be observed in the dark | inactive | largest light activation
